The source of these data is patent US20230265151A1, “GIP/GLP1 CO-AGONIST COMPOUNDS” (priority 2020, published 2023).

The structures appear in SMILES notation. pKi: −log10 of the molar value. Where two headings read alike, the source gives them in different places. Where only a bound is given, the exact number is not on record here.

Experiment [1] addresses T1, human GLP-1 receptor (hGLP-1R) (Homo sapiens, UniProt P43220).
T1 construct: expressed in transfected cells; crude membranes
Kind of experiment: [125I]-GLP-1 binding, SPA with membranes of HEK293 cells expressing hGLP-1R.

A further experiment deals with T2, hGIPR (Homo sapiens, UniProt P48546).
T2 construct: expressed in transfected cells
T2 sequence (P48546 22-466): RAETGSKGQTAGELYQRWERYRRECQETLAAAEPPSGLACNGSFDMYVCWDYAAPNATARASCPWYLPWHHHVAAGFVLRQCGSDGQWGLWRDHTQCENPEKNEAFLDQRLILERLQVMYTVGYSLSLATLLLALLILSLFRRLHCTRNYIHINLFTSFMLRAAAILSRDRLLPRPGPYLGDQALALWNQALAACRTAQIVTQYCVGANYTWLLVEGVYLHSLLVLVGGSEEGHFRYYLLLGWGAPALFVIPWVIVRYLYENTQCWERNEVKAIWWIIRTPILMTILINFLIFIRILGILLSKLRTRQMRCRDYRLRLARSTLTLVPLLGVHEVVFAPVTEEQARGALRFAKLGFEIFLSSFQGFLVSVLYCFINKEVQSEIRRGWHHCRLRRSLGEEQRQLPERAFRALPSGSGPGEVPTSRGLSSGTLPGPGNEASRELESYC
Kind of experiment: Functional cAMP formation (HTRF) in HEK-293 clonal cells expressing hGIPR, 0.1% bovine casein, without or with 1.0% human serum albumin. Format: cell-based. The settings on record: for Emax: percent of maximal response to GIP(1-42)NH2; for EC50: hGIPR EC50, nM (SEM, n), cAMP, 37° C. Summed up:
(§1)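 Cells were stimulated with peptide for 30 min at 37° C, then intracellular cAMP was measured by competitive HTRF (665/620 nm ratio) and converted to nM using a cAMP standard curve. Relative EC50 and Emax came from four-parameter logistic fits of percent maximal response against peptide concentration.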

A further experiment deals with T3, hGCGR (Homo sapiens, UniProt P47871).
T3 construct: expressed in transfected cells
Kind of experiment: Functional cAMP formation (HTRF) in HEK-293 clonal cells expressing hGCGR, 0.1% bovine casein, without or with 1.0% human serum albumin. Format: cell-based. The settings on record: hGCGR EC50, nM (SEM, n), cAMP, 37° C. Summed up:
as §1

A further experiment has as its target hGLP-1R (Homo sapiens, UniProt P43220). Briefly: Functional cAMP formation (HTRF) in HEK-293 clonal cells expressing hGLP-1R, 0.1% bovine casein, without or with 1.0% human serum albumin. Format: cell-based. Also on record: expressed in transfected cells. Summed up: as §1
Where [2] appears, read: 0.1% bovine casein (no human serum albumin), geometric mean.
[3] abbreviates: 0.1% bovine casein and 1.0% human serum albumin, geometric mean (SEM, n).

The pKi is the Ki on a negative log10 scale, so that one unit is a factor of ten. A low value points to a large Ki. For orientation: Emax means the greatest response seen or fitted, relative to the assay's reference. The term EC50 denotes the concentration giving half of the maximal effect. A high value points to weaker potency.

T3 sequence (P47871 26-477): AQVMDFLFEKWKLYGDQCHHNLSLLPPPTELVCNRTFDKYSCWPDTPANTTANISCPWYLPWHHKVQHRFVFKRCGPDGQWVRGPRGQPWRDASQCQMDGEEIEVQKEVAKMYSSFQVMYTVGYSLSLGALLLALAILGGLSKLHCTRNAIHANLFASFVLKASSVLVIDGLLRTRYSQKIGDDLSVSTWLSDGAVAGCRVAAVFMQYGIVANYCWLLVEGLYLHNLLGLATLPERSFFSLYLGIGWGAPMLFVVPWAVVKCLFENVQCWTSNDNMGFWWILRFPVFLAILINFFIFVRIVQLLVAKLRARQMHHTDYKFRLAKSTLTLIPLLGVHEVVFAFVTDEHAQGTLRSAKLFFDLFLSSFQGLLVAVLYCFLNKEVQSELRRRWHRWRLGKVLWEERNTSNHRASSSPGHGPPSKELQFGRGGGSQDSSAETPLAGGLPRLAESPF
hGLP-1R, sequence (P43220 24-463): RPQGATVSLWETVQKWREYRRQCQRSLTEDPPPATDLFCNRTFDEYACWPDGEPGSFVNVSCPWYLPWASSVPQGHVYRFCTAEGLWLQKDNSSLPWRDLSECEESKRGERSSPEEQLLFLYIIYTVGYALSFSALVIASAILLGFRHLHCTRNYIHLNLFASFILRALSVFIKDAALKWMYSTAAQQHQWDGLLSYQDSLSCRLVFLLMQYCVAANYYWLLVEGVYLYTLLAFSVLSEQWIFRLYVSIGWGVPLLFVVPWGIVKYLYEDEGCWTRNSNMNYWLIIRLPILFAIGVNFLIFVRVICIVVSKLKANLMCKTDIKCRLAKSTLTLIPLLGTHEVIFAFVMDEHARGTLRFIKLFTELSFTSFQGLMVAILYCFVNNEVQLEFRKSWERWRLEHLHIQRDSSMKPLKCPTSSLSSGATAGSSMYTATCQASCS
T1 sequence (P43220 24-463): as above

With `CC[C@H](C)[C@H](NC(=O)[C@H](CC(C)C)NC(=O)[C@](C)(Cc1ccc(O)cc1)NC(=O)[C@H](CCCCNC(=O)COCCOCCNC(=O)COCCOCCNC(=O)CC[C@H](NC(=O)CCCCCCCCCOc1ccc(C(=O)O)cc1)C(=O)O)NC(=O)[C@@H](NC(=O)[C@H](Cc1ccccc1)NC(=O)[C@H](Cc1ccncc1)NC(=O)C(C)(C)NC(=O)[C@H](CCC(N)=O)NC(=O)[C@H](C)NC(=O)[C@H](CCC(N)=O)NC(=O)[C@H](CCCN)NC(=O)[C@H](CC(=O)O)NC(=O)[C@H](CC(C)C)NC(=O)[C@](C)(CC(C)C)NC(=O)[C@@H](NC(=O)C(C)(C)NC(=O)[C@H](Cc1ccncc1)NC(=O)[C@H](CC(=O)O)NC(=O)[C@H](CO)NC(=O)[C@@H](NC(=O)[C@](C)(Cc1ccccc1F)NC(=O)[C@@H](NC(=O)CNC(=O)[C@H](CCC(=O)O)NC(=O)C(C)(C)NC(=O)[C@@H](N)Cc1ccc(O)cc1)[C@@H](C)O)[C@@H](C)O)[C@@H](C)CC)[C@@H](C)CC)C(=O)N[C@@H](CCCCNC(=O)COCCOCCNC(=O)COCCOCCNC(=O)CC[C@H](NC(=O)CCCCCCCCCOc1ccc(C(=O)O)cc1)C(=O)O)C(=O)NCC(=O)NCC(=O)N1CCC[C@H]1C(=O)N[C@@H](CO)C(=O)N[C@@H](CO)C(=O)NCC(=O)N[C@@H](C)C(=O)N1CCC[C@H]1C(=O)N1CCC[C@H]1C(=O)N1CCC[C@H]1C(=O)N[C@@H](CO)C(N)=O` [Example 493], the pKi in experiment [1] was 9.60. The Emax was determined as 94.6% at hGIPR (HEK293, read-out: hGIPR Emax, % ± SEM, cAMP, 37° C., 0.1% bovine casein and 1.0% human serum albumin); 105% at hGIPR (HEK293, read-out: hGIPR Emax, % ± SEM, cAMP, 37° C., 0.1% bovine casein, arithmetic mean); 126% on hGLP-1R (HEK293, read-out: hGLP-1R Emax, % ± SEM, cAMP, 37° C., 0.1% bovine casein, percent of maximal response to GLP-1(7-36)NH2, arithmetic mean). For the same molecule, the EC50 at hGIPR (setting [2]) is 0.0155 nM; on hGIPR (setting [3]) it was 0.591 nM; on hGCGR (setting [2]), greater than 9950 nM; at hGCGR (setting [3]), greater than 9950 nM; at hGLP-1R (hGLP-1R EC50, nM (SEM, n), cAMP, 37° C., 0.1% bovine casein (no human serum albumin), geometric mean) it was 0.184 nM.
